Test results taken from patent US20240384350A1, “METHODS OF TREATING CANCER WITH KINASE INHIBITORS” (BOARD OF REGENTS, THE UNIVERSITY OF TEXAS SYSTEM, priority 2021, published 2024).

Tests used:
Assay in all cases: Ba/F3 drug screening, Cell Titer Glo, IC50 Mut/WT
Format in all cases: cell-based
EGFR Ex19del L718V = molecular target: T1, EGFR Ex19del L718V (Homo sapiens, UniProt P00533, DEL746-750/L718V); conditions: Ba/F3 cells, EGFR Ex19del L718V (PACC), Mut/WT
T1 construct: expressed in transfected cells; host or cells: Ba/F3

EGFR E709K L858R = molecular target: T2, EGFR E709K L858R (Homo sapiens, UniProt P00533, E709K/L858R); conditions: Classical-Like, 72 hours
T2 construct: expressed in transfected cells; host or cells: Ba/F3 cells, retroviral pBabe-Puro vector

EGFR Ex19del/L792H = molecular target: T3, EGFR Ex19del/L792H (Homo sapiens, UniProt P00533, DEL746-750/L792H); conditions: Ba/F3 cells, EGFR Ex19del/L792H (PACC), Mut/WT
T3 construct: expressed in transfected cells; host or cells: Ba/F3

EGFR V769L = molecular target: T4, EGFR V769L (Homo sapiens, UniProt P00533, V769L); conditions: Ba/F3 cells, EGFR V769L (PACC), Mut/WT
T4 construct: expressed in transfected cells; host or cells: Ba/F3
Procedure: (§1) Data represent the ratio of the IC50 value for a given TKI for cells with a PACC EGFR mutation to the IC50 value for cells with wildtype EGFR.
(§2) Ba/F3 cell generation, drug screening, and IC50 approximations. Ba/F3 cells were obtained as a gift from Dr. Gordon Mills (MD Anderson Cancer Center), and maintained in RPMI (Sigma) containing 10% FBS, 1% penicillin/streptomycin, and 10 ng/ml recombinant mIL-3 (R&D Biosystems). To establish stable Ba/F3 cell lines, Ba/F3 cells were transduced with retroviruses containing mutant EGFR plasmids for 12-24 hours.
(§3) After 48-72 hours of transduction, 2 μg/ml puromycin (Invitrogen) was added to Ba/F3 cell lines in complete RPMI. To select for EGFR positive cell lines, cells were stained with PE-EGFR (Biolegend) and sorted by FACS. After sorting, EGFR positive cells were maintained in RPMI containing 10% FBS, 1% penicillin/streptomycin, and 1 ng/ml EGF to support cell viability. Drug screening was performed as previously described^41,42. Shortly, cells were plated in 384-well plates (Greiner Bio-One) at 2000-3000 cells per well in technical triplicate. Seven different concentrations of TKIs or DMSO vehicle were added to reach a final volume of 40 μL per well. After 72 hours, 11 μL of Cell Titer Glo (Promega) was added to each well. Plates were incubated for a minimum of 10 minutes, and bioluminescence was determined using a FLUOstar OPTIMA plate reader (BMG LABTECH). Raw bioluminescence values were normalized to DMSO control treated cells, and values were plotted in GraphPad Prism. […] Drug screens were performed in technical triplicate on each plate and either duplicate or triplicate biological replicates.

EGFR L861Q = molecular target: T5, EGFR L861Q (Homo sapiens, UniProt P00533, L861Q); conditions: Classical-Like, 72 hours
T5 construct: expressed in transfected cells; host or cells: Ba/F3 cells, retroviral pBabe-Puro vector

EGFR L858R G724S = molecular target: T6, EGFR L858R G724S (Homo sapiens, UniProt P00533, G724S/L858R); conditions: Ba/F3 cells, EGFR L858R G724S (PACC), Mut/WT
T6 construct: expressed in transfected cells; host or cells: Ba/F3 (retroviral transduction, pBabe-Puro based vectors)
Procedure: as §1, §2, §3

EGFR S811F = molecular target: T7, EGFR S811F (Homo sapiens, UniProt P00533, S811F); conditions: Classical-Like, 72 hours
T7 construct: expressed in transfected cells; host or cells: Ba/F3 cells, retroviral pBabe-Puro vector (vector made by GeneScript from EGFR WT)
Procedure: (§4) Data represent the ratio of the IC50 value for a given TKI for cells with a classical-like EGFR mutation to the IC50 value for cells with wildtype EGFR.
as §2
(§5) After 48-72 hours of transduction, 2 μg/ml puromycin (Invitrogen) was added to Ba/F3 cell lines in complete RPMI. To select for EGFR positive cell lines, cells were stained with PE-EGFR (Biolegend) and sorted by FACS. After sorting, EGFR positive cells were maintained in RPMI containing 10% FBS, 1% penicillin/streptomycin, and 1 ng/ml EGF to support cell viability. […] Shortly, cells were plated in 384-well plates (Greiner Bio-One) at 2000-3000 cells per well in technical triplicate. Seven different concentrations of TKIs or DMSO vehicle were added to reach a final volume of 40 μL per well. After 72 hours, 11 μL of Cell Titer Glo (Promega) was added to each well. Plates were incubated for a minimum of 10 minutes, and bioluminescence was determined using a FLUOstar OPTIMA plate reader (BMG LABTECH). Raw bioluminescence values were normalized to DMSO control treated cells, and values were plotted in GraphPad Prism. […] Drug screens were performed in technical triplicate on each plate and either duplicate or triplicate biological replicates.

EGFR Ex19del/T790M/L792H = molecular target: T8, EGFR Ex19del/T790M/L792H (Homo sapiens, UniProt P00533, DEL746-750/L792H/T790M); conditions: T790M-like-3R, 72 hours
T8 construct: expressed in transfected cells; host or cells: Ba/F3
Procedure: Data represent the ratio of the IC50 value for a given TKI for cells with a T790M-like-3R EGFR mutation to the IC50 value for cells with wildtype EGFR.
as §2
After 48-72 hours of transduction, 2 μg/ml puromycin (Invitrogen) was added to Ba/F3 cell lines in complete RPMI. To select for EGFR positive cell lines, cells were stained with PE-EGFR (Biolegend) and sorted by FACS. After sorting, EGFR positive cells were maintained in RPMI containing 10% FBS, 1% penicillin/streptomycin, and 1 ng/ml EGF to support cell viability. […] Shortly, cells were plated in 384-well plates (Greiner Bio-One) at 2000-3000 cells per well in technical triplicate. Seven different concentrations of TKIs or DMSO vehicle were added to reach a final volume of 40 μL per well. After 72 hours, 11 μL of Cell Titer Glo (Promega) was added to each well. Plates were incubated for a minimum of 10 minutes, and bioluminescence was determined using a FLUOstar OPTIMA plate reader (BMG LABTECH). Raw bioluminescence values were normalized to DMSO control treated cells, and values were plotted in GraphPad Prism. […] Drug screens were performed in technical triplicate on each plate and either duplicate or triplicate biological replicates. […] Statistical differences between groups were determined by ANOVA as described in the figure legends.

EGFR L858R/T790M/C797S = molecular target: T9, EGFR L858R/T790M/C797S (Homo sapiens, UniProt P00533, C797S/L858R/T790M); conditions: T790M-like-3R, 72 hours
T9 construct: expressed in transfected cells; host or cells: Ba/F3

EGFR S784F = molecular target: T10, EGFR S784F (Homo sapiens, UniProt P00533, S784F); conditions: Classical-Like, 72 hours
T10 construct: expressed in transfected cells; host or cells: Ba/F3 cells, retroviral pBabe-Puro vector (vector made by GeneScript from EGFR WT)
Procedure: as §4, §2, §5

EGFR S768I = molecular target: T11, EGFR S768I (Homo sapiens, UniProt P00533, S768I); conditions: Ba/F3 cells, EGFR S768I (PACC), Mut/WT
T11 construct: expressed in transfected cells; host or cells: Ba/F3

EGFR G719S = molecular target: T12, EGFR G719S (Homo sapiens, UniProt P00533, G719S); conditions: Ba/F3 cells, EGFR G719S (PACC), Mut/WT
T12 construct: expressed in transfected cells; host or cells: Ba/F3

EGFR S768dupSVD = molecular target: T13, EGFR S768dupSVD (Homo sapiens, UniProt P00533, DUP768-770); conditions: Ex20, 72 hours
T13 construct: expressed in transfected cells; host or cells: Ba/F3 cells, retroviral pBabe-Puro vector
Procedure: Data represent the ratio of the IC50 value for a given TKI for cells with an ex20ins EGFR mutation to the IC50 value for cells with wildtype EGFR.
as §2
After 48-72 hours of transduction, 2 μg/ml puromycin (Invitrogen) was added to Ba/F3 cell lines in complete RPMI. To select for EGFR positive cell lines, cells were stained with PE-EGFR (Biolegend) and sorted by FACS. After sorting, EGFR positive cells were maintained in RPMI containing 10% FBS, 1% penicillin/streptomycin, and 1 ng/ml EGF to support cell viability. Drug screening was performed as previously described^41,42. Shortly, cells were plated in 384-well plates (Greiner Bio-One) at 2000-3000 cells per well in technical triplicate. Seven different concentrations of TKIs or DMSO vehicle were added to reach a final volume of 40 μL per well. After 72 hours, 11 μL of Cell Titer Glo (Promega) was added to each well. Plates were incubated for a minimum of 10 minutes, and bioluminescence was determined using a FLUOstar OPTIMA plate reader (BMG LABTECH). Raw bioluminescence values were normalized to DMSO control treated cells, and values were plotted in GraphPad Prism. […] Drug screens were performed in technical triplicate on each plate and either duplicate or triplicate biological replicates. […] Statistical differences between groups were determined by ANOVA as described in the figure legends.

EGFR Ex19del T790M C797S = molecular target: T14, EGFR Ex19del T790M C797S (Homo sapiens, UniProt P00533, C797S/DEL746-750/T790M); conditions: T790M-like-3R, 72 hours
T14 construct: expressed in transfected cells; host or cells: Ba/F3

EGFR S768I V774M = molecular target: T15, EGFR S768I V774M (Homo sapiens, UniProt P00533, S768I/V774M); conditions: Ba/F3 cells, EGFR S768I V774M (PACC), Mut/WT
T15 construct: host or cells: Ba/F3

EGFR N771dupN = molecular target: T16, EGFR N771dupN (Homo sapiens, UniProt P00533, DUP771-771); conditions: Ex20, 72 hours
T16 construct: expressed in transfected cells; host or cells: Ba/F3 cells, retroviral pBabe-Puro vector

EGFR E709K G719S = molecular target: T17, EGFR E709K G719S (Homo sapiens, UniProt P00533, E709K/G719S); conditions: Ba/F3 cells, EGFR E709K G719S (PACC), Mut/WT
T17 construct: expressed in transfected cells; host or cells: Ba/F3
Procedure: as §1, §2, §3

EGFR L718Q T790M = molecular target: T18, EGFR L718Q T790M (Homo sapiens, UniProt P00533, L718Q/T790M); conditions: T790M-like-3R, 72 hours
T18 construct: expressed in transfected cells; host or cells: Ba/F3

EGFR S720P = molecular target: T19, EGFR S720P (Homo sapiens, UniProt P00533, S720P); conditions: Classical-Like, 72 hours
T19 construct: expressed in transfected cells; host or cells: Ba/F3 cells, retroviral pBabe-Puro vector (vector made by GeneScript from EGFR WT)

EGFR K754E = molecular target: T20, EGFR K754E (Homo sapiens, UniProt P00533, K754E); conditions: Classical-Like, 72 hours
T20 construct: expressed in transfected cells; host or cells: Ba/F3 cells, retroviral pBabe-Puro vector
Procedure: as §4, §2, §5

EGFR Ex19del/C797S = molecular target: T21, EGFR Ex19del/C797S (Homo sapiens, UniProt P00533, C797S/DEL746-750); conditions: Ba/F3 cells, EGFR Ex19del/C797S (PACC), Mut/WT
T21 construct: expressed in transfected cells; host or cells: Ba/F3
Procedure: as §1, §2, §3

EGFR L858R T790M V843I = molecular target: T22, EGFR L858R T790M V843I (Homo sapiens, UniProt P00533, L858R/T790M/V843I); conditions: T790M-like-3S, 72 hours
T22 construct: expressed in transfected cells; host or cells: Ba/F3

EGFR A763insFQEA = molecular target: T23, EGFR A763insFQEA (Homo sapiens, UniProt P00533, INS763FQEA); conditions: Classical-Like, 72 hours
T23 construct: expressed in transfected cells; host or cells: Ba/F3 cells, retroviral pBabe-Puro vector

EGFR R776C = molecular target: T24, EGFR R776C (Homo sapiens, UniProt P00533, R776C); conditions: Ba/F3 cells, EGFR R776C (PACC), Mut/WT
T24 construct: host or cells: Ba/F3
Procedure: as §1, §2, §3

EGFR D770insNPG = molecular target: T25, EGFR D770insNPG (Homo sapiens, UniProt P00533, INS770NPG); conditions: Ex20, 72 hours
T25 construct: expressed in transfected cells; host or cells: Ba/F3 cells, retroviral pBabe-Puro vector

EGFR K757R = molecular target: T26, EGFR K757R (Homo sapiens, UniProt P00533, K757R); conditions: Ba/F3 cells, EGFR K757R (PACC), Mut/WT
T26 construct: expressed in transfected cells; host or cells: Ba/F3

EGFR T725M = molecular target: T27, EGFR T725M (Homo sapiens, UniProt P00533, T725M); conditions: Classical-Like, 72 hours
T27 construct: expressed in transfected cells; host or cells: Ba/F3 cells, retroviral pBabe-Puro vector (vector made by GeneScript from EGFR WT)
Procedure: as §4, §2, §5

## C=CC(=O)N1CC[C@@H](Oc2nc(Nc3ccc(N4CCC(N5CCN(C)CC5)CC4)cc3)c(C(N)=O)nc2CC)C1 [Naquotinib]
EGFR Ex19del L718V
  ratio of the IC50 value for cells with a PACC EGFR mutation to the IC50 value for cells with wildtype EGFR: 0.1035
EGFR E709K L858R
  ratio of IC50 for cells with mutant EGFR to IC50 for cells with wildtype EGFR (Mut/WT): 0.0818
EGFR Ex19del/L792H
  ratio of the IC50 value for cells with a PACC EGFR mutation to the IC50 value for cells with wildtype EGFR: 0.02929
EGFR V769L
  ratio of the IC50 value for cells with a PACC EGFR mutation to the IC50 value for cells with wildtype EGFR: 1.624
EGFR L861Q
  ratio of IC50 for cells with mutant EGFR to IC50 for cells with wildtype EGFR (Mut/WT): 0.1616
EGFR L858R G724S
  ratio of the IC50 value for cells with a PACC EGFR mutation to the IC50 value for cells with wildtype EGFR: 0.5799
EGFR S811F
  ratio of IC50 for cells with mutant EGFR to IC50 for cells with wildtype EGFR (Mut/WT): 0.0351
EGFR Ex19del/T790M/L792H
  ratio of IC50 for cells with mutant EGFR to IC50 for cells with wildtype EGFR (Mut/WT): 4.634
EGFR L858R/T790M/C797S
  ratio of IC50 for cells with mutant EGFR to IC50 for cells with wildtype EGFR (Mut/WT): 32.29
EGFR S784F
  ratio of IC50 for cells with mutant EGFR to IC50 for cells with wildtype EGFR (Mut/WT): 0.3727
EGFR S768I
  ratio of the IC50 value for cells with a PACC EGFR mutation to the IC50 value for cells with wildtype EGFR: 1.09
EGFR G719S
  ratio of the IC50 value for cells with a PACC EGFR mutation to the IC50 value for cells with wildtype EGFR: 0.2727
EGFR S768dupSVD
  ratio of IC50 for cells with mutant EGFR to IC50 for cells with wildtype EGFR (Mut/WT): 1.135
EGFR Ex19del T790M C797S
  ratio of IC50 for cells with mutant EGFR to IC50 for cells with wildtype EGFR (Mut/WT): 14.64
EGFR S768I V774M
  ratio of the IC50 value for cells with a PACC EGFR mutation to the IC50 value for cells with wildtype EGFR: 0.4917
EGFR N771dupN
  ratio of IC50 for cells with mutant EGFR to IC50 for cells with wildtype EGFR (Mut/WT): 3.012
EGFR E709K G719S
  ratio of the IC50 value for cells with a PACC EGFR mutation to the IC50 value for cells with wildtype EGFR: 0.5339
EGFR L718Q T790M
  ratio of IC50 for cells with mutant EGFR to IC50 for cells with wildtype EGFR (Mut/WT): 1.576
EGFR S720P
  ratio of IC50 for cells with mutant EGFR to IC50 for cells with wildtype EGFR (Mut/WT): 0.03397
EGFR K754E
  ratio of IC50 for cells with mutant EGFR to IC50 for cells with wildtype EGFR (Mut/WT): 0.04901
EGFR Ex19del/C797S
  ratio of the IC50 value for cells with a PACC EGFR mutation to the IC50 value for cells with wildtype EGFR: 11.45
EGFR L858R T790M V843I
  ratio of IC50 for cells with mutant EGFR to IC50 for cells with wildtype EGFR (Mut/WT): 0.01519
EGFR A763insFQEA
  ratio of IC50 for cells with mutant EGFR to IC50 for cells with wildtype EGFR (Mut/WT): 0.1912
EGFR R776C
  ratio of the IC50 value for cells with a PACC EGFR mutation to the IC50 value for cells with wildtype EGFR: 4.27
EGFR D770insNPG
  ratio of IC50 for cells with mutant EGFR to IC50 for cells with wildtype EGFR (Mut/WT): 1.296
EGFR K757R
  ratio of the IC50 value for cells with a PACC EGFR mutation to the IC50 value for cells with wildtype EGFR: 1.658
EGFR T725M
  ratio of IC50 for cells with mutant EGFR to IC50 for cells with wildtype EGFR (Mut/WT): 0.5761
